# Test results: paper PMC7037732, “Synthesis of Combretastatin A-4 and 3′-Aminocombretastatin A-4 derivatives with Aminoacid Containing Pendants and Study of their Interaction with Tubulin and as Downregulators of the VEGF, hTERT and c-Myc Gene Expression” (Molecules, 2020)
# Values joined by “and” are separate entries in the source; they are usually repeats but may differ in a detail not shown here. Equal entries are not always repeated.
# Key:
# [1] = tested on: A-549 (human pulmonary adenocarcinoma); experiment: Inhibition of cell proliferation (MTT), A-549; type: cell-based; settings: Homo sapiens, A549, 48 h, 48 h of treatment (footnote), average ±SD of three experiments
# Outline: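 Antiproliferative activity against A-549 human pulmonary adenocarcinoma cells was measured by MTT assay. Cells were seeded at 25,000/mL in 96-well plates, cultured 24 h, then exposed to compounds at various concentrations. MTT (20 µL, 5 mg·mL^−1) was added for 2 h at 37 °C, formazan dissolved in 200 µL DMSO, and absorbance read at 540 nm. IC50 values came graphically from three independent experiments.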
# [2] = tested on: purified tubulin; experiment: Critical concentration (CrC) for the assembly of purified tubulin in GAB; type: biochemical; settings: compound 27.5 μM, tubulin 25 μM, glycerol (GAB) and GTP assembly buffer; control 7.9 ± 1.2
# Description: The effect on the self-assembly of tubulin was determined by measuring the critical concentration (CrC).
# [3] = tested on: VEGF gene; experiment: VEGF gene expression by RT-qPCR in HT-29 cells; type: cell-based, human
# Description: (§1) The effect on the expression of VEGF, hTERT and c-Myc genes has been studied for CA-4 and its derivatives that show selectivity indexes higher than 0.9 on the HT-29 cell line. The studied derivatives, together with the concentrations to which they have been tested, are CA-4 (15 μM); 4.1 (Gly, 5 μM); 4.5 (L-Pro, 25 μM); 4.9 (L-Met, 25 μM); 6.2 (D-Leu, 25 μM); 6.3 (D-Phe, 25 μM); 6.4 (D-Pro, 25 μM) and 6.5 (D-Ser, 10 μM). The expression of the genes was determined by RT-qPCR methodology, as described in the Materials and Methods section.
# (§2) As regards AmCA-4 derivatives, the effect on the expression of the VEGF, hTERT and c-Myc genes has been studied on those that show IC50 in the low nanomolar range on the HT-29 cell line and/or on compounds whose selectivity indexes with respect to this cell line are higher than 1. The studied compounds, together with the concentrations to which they have been tested, are: CA-4 (15 μM), AmCA-4 (15 nM), 7.1 (7 nM), 7.2 (1.5 nM), 7.3 (4 nM), 7.4 (15 nM), 7.5 (2 nM), 7.7 (7 nM), 7.8 (15 nM), 7.9 (30 nM), 8.1 (7 nM), 8.2 (3 nM), 8.3 (10 nM), 8.4 (1.5 nM), 8.5 (4 nM), 8.7 (7 nM), 8.8 (3 nM) and 8.9 (4 nM).
# (§3) HT-29 cells at 70–80% confluence were collected, and 1.5 × 10^5 cells were placed in a six-well plate in 1.5 mL of the medium. After 24 h, cells were incubated with the corresponding compounds for 48 h. Cells were collected, and the total cellular RNA from the HT-29 cells was isolated using an Ambion RNA Extraction Kit, according to the manufacturer’s instructions. The cDNA was synthesized by MMLV-RT with […] of extracted RNA and oligo(dT)15, according to the manufacturer’s instructions. Genes were amplified by a thermal cycler and StepOnePlus™ TaqMan® probes. TaqMan® Gene Expression Master Mix Fast, containing the appropriate buffer for the amplification conditions, dNTPs, thermostable DNA polymerase enzyme and a passive reference probe, was used. To amplify each of the genes, the predesigned primers sold by Life Technologies TaqMan® Gene Expression Assays Hs99999903-m1 (β-actin), Hs00900055-m1 (VEGF), Hs00972646-m1 (hTERT) and Hs00153408-m1 (c-Myc) were used.
# [4] = tested on: c-Myc gene; experiment: c-Myc gene expression by RT-qPCR in HT-29 cells; type: cell-based, human
# Description: as §1, §2, §3
# [5] = Homo sapiens, HT-29, 48 h, 7 nM, control 100
# [6] = Homo sapiens, HT-29, 48 h, 25 μM, control 100
# [7] = Homo sapiens; HT-29, 48 h, 25 μM; control 100
# [8] = Homo sapiens, HT-29, 48 h, 10 μM, control 100
# [9] = HT-29, 48 h; discussion; concentration per compound
# [10] = Homo sapiens, HT-29, 48 h, 2 nM, control 100
# [11] = Homo sapiens, HT-29, 48 h, 3 nM, control 100
# [12] = Homo sapiens, HT-29, 48 h, 30 nM, control 100
# [13] = Homo sapiens, HT-29, 48 h, 10 nM, control 100
# [14] = Homo sapiens, HT-29, 48 h, 4 nM, control 100
# [15] = Homo sapiens; HT-29, 48 h, 15 nM; control 100
# [16] = Homo sapiens, HT-29, 48 h, 5 μM, control 100
# [17] = Homo sapiens; HT-29, 48 h, 15 μM; control (DMSO) 100; normalized to β-actin
structure (smiles),measurement,setting,value
COc1ccc(/C=C\c2cc(OC)c(OC)c(OC)c2)cc1NC(=O)CN [Compound 8.1],IC50,[1]; Table 2,400 ± 70 nM
same,CrC (critical concentration),[2],10.2 ± 1.8 µM
same,mrna remaining at 0.007 µM,[3]; [5],24%
same,mrna remaining at 0.007 µM,[4]; [5],54%
COc1ccc(/C=C\c2cc(OC)c(OC)c(OC)c2)cc1OCC(=O)N1CCC[C@@H]1C(=O)O [Compound 6.4],IC50,[1]; Table 1,95000 ± 14000 nM
same,CrC (critical concentration),[2],10 ± 3 µM
same,mrna remaining at 25 µM,[3]; [6],25%
same,mrna remaining at 25 µM,[4]; [6],81%
COc1ccc(/C=C\c2cc(OC)c(OC)c(OC)c2)cc1OCC(=O)N[C@H](CC(C)C)C(=O)O [Compound 6.2],IC50,[1]; Table 1,68000 ± 1000 nM
same,CrC (critical concentration),[2],11 ± 3 µM
same,mrna remaining at 25 µM,[3]; [6],40%
same,mrna remaining at 25 µM,[4]; [6],68%
COc1ccc(/C=C\c2cc(OC)c(OC)c(OC)c2)cc1OCC(=O)N[C@H](C(=O)O)C(C)C [Compound 4.2],IC50,[1]; Table 1,17000 ± 2000 nM
same,CrC (critical concentration),[2],9.3 ± 0.3 µM
same,mrna remaining at 25 µM,[3]; [7],89%
same,mrna remaining at 25 µM,[4]; [7],71%
COc1ccc(/C=C\c2cc(OC)c(OC)c(OC)c2)cc1OCC(=O)N[C@H](CO)C(=O)O [Compound 6.5],IC50,[1]; Table 1,> 150000 nM
same,CrC (critical concentration),[2],9.25 ± 0.16 µM
same,mrna remaining at 10 µM,[3]; [8],54%
same,mrna remaining at 10 µM,[4]; [8],94%
COc1ccc(/C=C\c2cc(OC)c(OC)c(OC)c2)cc1NC(=O)[C@H](Cc1ccccc1)NC(=O)OCC1c2ccccc2-c2ccccc21 [Compound 7.5],IC50,[1]; Table 2,270 ± 50 nM
same,CrC (critical concentration),[2],8.1 ± 1.6 µM
same,downregulation of VEGF gene expression,[3]; [9],more than 60%
same,mrna remaining at 0.002 µM,[3]; [10],16%
same,downregulation of c-Myc gene expression,[4]; [9],more than 60%
same,mrna remaining at 0.002 µM,[4]; [10],40%
COc1ccc(/C=C\c2cc(OC)c(OC)c(OC)c2)cc1NC(=O)[C@H](C)N [Compound 8.2],IC50,[1]; Table 2,611 ± 16 nM
same,CrC (critical concentration),[2],13.9 ± 1.5 µM
same,mrna remaining at 0.003 µM,[3]; [11],84%
same,mrna remaining at 0.003 µM,[4]; [11],97%
COc1ccc(/C=C\c2cc(OC)c(OC)c(OC)c2)cc1NC(=O)[C@H](CCSC)NC(=O)OCC1c2ccccc2-c2ccccc21 [Compound 7.9],IC50,[1]; Table 2,407 ± 23 nM
same,CrC (critical concentration),[2],7.1 ± 0.4 µM
same,mrna remaining at 0.03 µM,[3]; [12],68%
same,mrna remaining at 0.03 µM,[4]; [12],61%
COc1ccc(/C=C\c2cc(OC)c(OC)c(OC)c2)cc1NC(=O)CNC(=O)OCC1c2ccccc2-c2ccccc21 [Compound 7.1],IC50,[1]; Table 2,186 ± 11 nM
same,CrC (critical concentration),[2],11 ± 4 µM
same,mrna remaining at 0.007 µM,[3]; [5],69%
same,mrna remaining at 0.007 µM,[4]; [5],58%
COc1ccc(/C=C\c2cc(OC)c(OC)c(OC)c2)cc1NC(=O)[C@@H](N)C(C)C [Compound 8.3],IC50,[1]; Table 2,490 ± 100 nM
same,CrC (critical concentration),[2],9.3 ± 0.5 µM
same,mrna remaining at 0.01 µM,[3]; [13],33%
same,mrna remaining at 0.01 µM,[4]; [13],62%
COc1ccc(/C=C\c2cc(OC)c(OC)c(OC)c2)cc1NC(=O)[C@@H](N)CCSC [Compound 8.9],IC50,[1]; Table 2,90 ± 30 nM
same,CrC (critical concentration),[2],8.5 ± 1.2 µM
same,mrna remaining at 0.004 µM,[3]; [14],48%
same,mrna remaining at 0.004 µM,[4]; [14],70%
"COc1ccc(/C=C\c2cc(OC)c(OC)c(OC)c2)cc1N [AmCA-4, 3′-aminocombretastatin A-4]",IC50,[1]; Table 2,117 ± 7 nM
same,CrC (critical concentration),[2],23 ± 3 µM
same,mrna remaining at 0.015 µM,[3]; [15],67%
same,mrna remaining at 0.015 µM,[4]; [15],58%
COc1ccc(/C=C\c2cc(OC)c(OC)c(OC)c2)cc1OCC(=O)N[C@@H](CCSC)C(=O)O [Compound 4.9],IC50,[1]; Table 1,> 300000 nM
same,CrC (critical concentration),[2],8.6 ± 0.4 µM
same,downregulation of VEGF gene expression,[3]; [9],more than 55%
same,mrna remaining at 25 µM,[3]; [6],37 to 55%
same,downregulation of c-Myc gene expression,[4]; [9],more than 55%
same,mrna remaining at 25 µM,[4]; [6],37%
COc1ccc(/C=C\c2cc(OC)c(OC)c(OC)c2)cc1OCC(=O)NCC(=O)O [Compound 4.1],IC50,[1]; Table 1,24000 ± 4000 nM
same,CrC (critical concentration),[2],9.3 ± 0.4 µM
same,mrna remaining at 5 µM,[3]; [16],45%
same,mrna remaining at 5 µM,[4]; [16],62%
"COc1ccc(/C=C\c2cc(OC)c(OC)c(OC)c2)cc1O [CA-4, combretastatin A-4]",IC50,[1]; Table 1,428 ± 4 nM
same,CrC (critical concentration),[2],21.5 µM and 21.5 ± 0.8 µM
same,mrna remaining at 15 µM,[3]; [17],40%
same,mrna remaining at 15 µM,[4]; [17],35%
COc1ccc(/C=C\c2cc(OC)c(OC)c(OC)c2)cc1OCC(=O)N[C@H](Cc1ccccc1)C(=O)O [Compound 6.3],IC50,[1]; Table 1,60000 ± 4000 nM
same,CrC (critical concentration),[2],9.2 ± 0.4 µM
same,mrna remaining at 25 µM,[3]; [7],77%
same,mrna remaining at 25 µM,[4]; [7],55%
COc1ccc(/C=C\c2cc(OC)c(OC)c(OC)c2)cc1NC(=O)[C@@H](N)Cc1ccccc1 [Compound 8.5],IC50,[1]; Table 2,141 ± 3 nM
same,CrC (critical concentration),[2],9.1 ± 0.9 µM
same,mrna remaining at 0.004 µM,[3]; [14],37%
same,mrna remaining at 0.004 µM,[4]; [14],74%
COc1ccc(/C=C\c2cc(OC)c(OC)c(OC)c2)cc1NC(=O)[C@@H](N)C(C)O (stereo partly drawn) [Compound 8.7],IC50,[1]; Table 2,410 ± 40 nM
same,CrC (critical concentration),[2],12.3 ± 0.6 µM
same,downregulation of VEGF gene expression,[3]; [9],more than 60%
same,mrna remaining at 0.007 µM,[3]; [5],15%
same,downregulation of c-Myc gene expression,[4]; [9],more than 60%
same,mrna remaining at 0.007 µM,[4]; [5],37%
